Our source for the T/C values is PubChem BioAssay AID220 (DTP/NCI, 2004).

In the experiment the test system is CD8F1 mice, subcutaneous mammary adenocarcinoma, T/C%. Kind of experiment: NCI In Vivo Anticancer Drug Screen. Data for tumor model Mammary Adenocarcinoma CD8F1 (subcutaneous) in CD8F1. Conditions: higher = larger tumour. The essentials: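 Ratio of treated to vehicle-control outcome, based on either survival or tumor size, in mice bearing transplantable tumors given the test compound.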

The mark [1] stands for this setting: endpoint: median tumor weight change, dose: 25.0 mg/kg/injection, schedule: Q01DX001 (ip), vehicle: saline.
Setting [2] is: endpoint: median tumor weight change, dose: 50.0 mg/kg/injection, schedule: Q01DX001 (ip), vehicle: saline.
The mark [3] stands for this setting: endpoint: median tumor weight change, dose: 125.0 mg/kg/injection, schedule: Q01DX001 (ip), vehicle: suspension in saline.
The mark [4] stands for this setting: endpoint: median tumor weight (est.), dose: 100.0 mg/kg/injection, schedule: Q07DX005 (ip), vehicle: saline.
Where [5] appears, read: endpoint: median tumor weight (est.), dose: 12.5 mg/kg/injection, schedule: Q07DX005 (ip), vehicle: saline.
The mark [6] stands for this setting: endpoint: median tumor weight (est.), dose: 25.0 mg/kg/injection, schedule: Q07DX005 (ip), vehicle: saline.

Molecules are shown by their SMILES. Where “and” joins values, the source holds several entries; their conditions need not be identical. Identical values can stand only once. Results filed as inconclusive are left out. Starred links: 1 amine or outer side, 2 acyl side, 3 side chain; linkers in the order of their positions; H or OH if unused. Non-standard residues stand in square brackets, D forms with d. Residues, ends and D or L forms follow the SMILES beside them. *: point of attachment. X2 = CCC(=O)CC1CC(C)CC(C(=O)[*:2])N1[*:1]; X1 = CCCCCCCCC(C)C(=O)*; Aib = CC(C)(N)C(=O)O; X3 = CC(CN(C)CCO)N*

Regarding `CC1=C(C)C(=O)O[C@@H]([C@](C)(O)[C@]2(O)CC[C@@]3(O)[C@@H]4C[C@H]5O[C@]56CC=CC(=O)[C@]6(C)[C@H]4CC[C@]23C)C1`, the T/C runs as follows: under setting [1], 91 % of control; under setting [2], 98 % of control; (endpoint: median tumor weight change, dose: 200.0 mg/kg/injection, schedule: Q01DX001 (ip), vehicle: saline) 69 % of control; (endpoint: median tumor weight change, dose: 400.0 mg/kg/injection, schedule: Q01DX001 (ip), vehicle: saline) 82 % of control.
As for `N=C(N)SCc1cccc2c(=O)cc(-c3ccccc3)oc12`, the T/C is 151 % of control under setting [3]; 151 % of control (endpoint: median tumor weight change, dose: 250.0 mg/kg/injection, schedule: Q01DX001 (ip), vehicle: suspension in saline); 106 % of control (endpoint: median tumor weight change, dose: 500.0 mg/kg/injection, schedule: Q01DX001 (ip), vehicle: suspension in saline); 123 % of control (endpoint: median tumor weight change, dose: 1000.0 mg/kg/injection, schedule: Q01DX001 (ip), vehicle: suspension in saline).
For `CN1CCc2c(c3ccccc3c3ccccc23)C1`, the T/C is 57 % of control (endpoint: median tumor weight change, dose: 12.5 mg/kg/injection, schedule: Q01DX001 (ip), vehicle: Klucel (hydroxypropylcellulose) (HPC)); 65 % of control (endpoint: median tumor weight change, dose: 25.0 mg/kg/injection, schedule: Q01DX001 (ip), vehicle: Klucel (hydroxypropylcellulose) (HPC)); 49 % of control (endpoint: median tumor weight change, dose: 50.0 mg/kg/injection, schedule: Q01DX001 (ip), vehicle: Klucel (hydroxypropylcellulose) (HPC)); 74 % of control (endpoint: median tumor weight change, dose: 62.5 mg/kg/injection, schedule: Q01DX001 (ip), vehicle: Klucel (hydroxypropylcellulose) (HPC)); 27 % of control (endpoint: median tumor weight change, dose: 100.0 mg/kg/injection, schedule: Q01DX001 (ip), vehicle: Klucel (hydroxypropylcellulose) (HPC)); 56 % of control (endpoint: median tumor weight change, dose: 125.0 mg/kg/injection, schedule: Q01DX001 (ip), vehicle: Klucel (hydroxypropylcellulose) (HPC)).
`BrCCC1(CCBr)CCCCC1`: the T/C (endpoint: median tumor weight change, dose: 125.0 mg/kg/injection, schedule: Q01DX001 (ip), vehicle: other) was 80 % of control; the T/C (endpoint: median tumor weight change, dose: 250.0 mg/kg/injection, schedule: Q01DX001 (ip), vehicle: other) was 79 % of control; the T/C (endpoint: median tumor weight change, dose: 500.0 mg/kg/injection, schedule: Q01DX001 (ip), vehicle: other) is 83 % of control; the T/C (endpoint: median tumor weight change, dose: 1000.0 mg/kg/injection, schedule: Q01DX001 (ip), vehicle: other) is 109 % of control; the T/C (endpoint: median tumor weight change, dose: 2000.0 mg/kg/injection, schedule: Q01DX001 (ip), vehicle: other) is 119 % of control.
For `CN(CCN(C)C(=O)CCOS(C)(=O)=O)C(=O)CCOS(C)(=O)=O`, the T/C is, setting by setting: (endpoint: median tumor weight change, dose: 62.0 mg/kg/injection, schedule: Q01DX001 (ip), vehicle: saline) 67 % of control; (endpoint: median tumor weight change, dose: 62.5 mg/kg/injection, schedule: Q01DX001 (ip), vehicle: saline with Tween-80) 43 % of control; (endpoint: median tumor weight change, dose: 62.5 mg/kg/injection, schedule: Q01DX001 (ip), vehicle: suspension in saline) 39 % of control; (endpoint: median tumor weight change, dose: 125.0 mg/kg/injection, schedule: Q01DX001 (ip), vehicle: saline with Tween-80) 15 % of control; (endpoint: median tumor weight change, dose: 125.0 mg/kg/injection, schedule: Q01DX001 (ip), vehicle: saline) 3 % of control; under setting [3], 10 % of control. The T/C by setting is: (endpoint: median tumor weight change, dose: 250.0 mg/kg/injection, schedule: Q01DX001 (ip), vehicle: saline) 51 % of control; (endpoint: median tumor weight change, dose: 500.0 mg/kg/injection, schedule: Q01DX001 (ip), vehicle: saline with Tween-80) -17 % of control.
On to `C=C1C(C)C2C(Cc3ccccc3)NC(=O)C23C(OC(C)=O)C=CC(C)(O)C(=O)C(C)C/C=C/C3C1O` (centres undefined), for which the T/C reads like this: (endpoint: median tumor weight (est.), dose: 0.62 mg/kg/injection, schedule: Q07DX005 (ip), vehicle: saline) 64 % of control; (endpoint: median tumor weight (est.), dose: 1.25 mg/kg/injection, schedule: Q07DX005 (ip), vehicle: saline) 61 % of control; (endpoint: median tumor weight (est.), dose: 2.5 mg/kg/injection, schedule: Q07DX005 (ip), vehicle: saline) 94 % of control; (endpoint: median tumor weight (est.), dose: 5.0 mg/kg/injection, schedule: Q07DX005 (ip), vehicle: saline) 59 % of control; (endpoint: median tumor weight (est.), dose: 10.0 mg/kg/injection, schedule: Q07DX005 (ip), vehicle: saline) 46 % of control.
Take `O=C(O)CP(=O)(O)O`: the T/C under setting [4] was 90 % of control; the T/C (endpoint: median tumor weight (est.), dose: 200.0 mg/kg/injection, schedule: Q07DX005 (ip), vehicle: saline) was 97 % of control; the T/C (endpoint: median tumor weight (est.), dose: 400.0 mg/kg/injection, schedule: Q07DX005 (ip), vehicle: saline) is 57 % of control; the T/C (endpoint: median tumor weight (est.), dose: 800.0 mg/kg/injection, schedule: Q07DX005 (ip), vehicle: saline) was 79 % of control.
Consider `C[N+](C)(C)c1ncnc2c1ncn2C1CCCO1` (centres undefined), for which the T/C by setting is: under setting [5], 85 % of control; under setting [6], 89 % of control; (endpoint: median tumor weight (est.), dose: 50.0 mg/kg/injection, schedule: Q07DX005 (ip), vehicle: saline) 87 % of control; under setting [4], 92 % of control.
In the case of `C=C(C)C12CC(C)C34OC5(CCCCCCCC(C)C6C(C)C(OC(=O)c7ccccc7)C(O)(C(O)C7(COC(=O)CCCCCCCCCCCCCCC)OC7C3C1O5)C64)O2` (centres undefined), the T/C was 82 % of control (endpoint: mean tumor weight, dose: 25.0 micrograms/kg/injection, schedule: Q01DX009 (ip), vehicle: Klucel (hydroxypropylcellulose) (HPC)); 150 % of control (endpoint: mean tumor weight, dose: 50.0 micrograms/kg/injection, schedule: Q01DX009 (ip), vehicle: Klucel (hydroxypropylcellulose) (HPC)); 114 % of control (endpoint: mean tumor weight, dose: 100.0 micrograms/kg/injection, schedule: Q01DX009 (ip), vehicle: Klucel (hydroxypropylcellulose) (HPC)); 151 % of control (endpoint: mean tumor weight, dose: 200.0 micrograms/kg/injection, schedule: Q01DX009 (ip), vehicle: Klucel (hydroxypropylcellulose) (HPC)).
In the case of `Cc1ncc(CNC(=O)N(CCCl)N=O)c(N)n1`, the T/C (endpoint: median tumor weight (est.), dose: 6.25 mg/kg/injection, schedule: Q07DX005 (ip), vehicle: saline) was 18 % of control; the T/C under setting [5] was 20 % of control; the T/C under setting [6] is 14 % of control.
Regarding `CCCCC[C@H](O)/C=C/[C@@H]1[C@@H](C/C=C\CCCC(=O)O)[C@@H](O)C[C@H]1O`, the T/C was 93 % of control (endpoint: mean tumor weight, dose: 160.0 mg/kg/injection, schedule: Q01DX001 (iv), vehicle: saline) and 58 % of control (endpoint: mean tumor weight, dose: 320.0 mg/kg/injection, schedule: Q01DX001 (iv), vehicle: saline).
As for `C/C(=N\NC(=S)N1CCN(c2ccccn2)CC1)c1ccccn1`, the T/C is, setting by setting: (endpoint: median tumor weight change, dose: 12.5 mg/kg/injection, schedule: Q01DX001 (ip), vehicle: other) 74 % of control; (endpoint: median tumor weight change, dose: 25.0 mg/kg/injection, schedule: Q01DX001 (ip), vehicle: other) 76 % of control; (endpoint: median tumor weight change, dose: 50.0 mg/kg/injection, schedule: Q01DX001 (ip), vehicle: other) 87 % of control.
In the case of `Cc1c2ccccc2cc2cccc[n+]12`, the T/C runs as follows: (endpoint: median tumor weight change, dose: 20.0 mg/kg/injection, schedule: Q01DX001 (ip), vehicle: saline) 116 % of control; under setting [1], 123 % of control; (endpoint: median tumor weight change, dose: 40.0 mg/kg/injection, schedule: Q01DX001 (ip), vehicle: saline) 119 % of control; under setting [2], 59 % of control.
Consider `Cc1ccc(S(=O)(=O)N/N=C/C(=O)O)cc1`, for which the T/C reads like this: (endpoint: median tumor weight (est.), dose: 12.5 mg/kg/injection, schedule: Q07DX005 (ip), vehicle: Klucel (hydroxypropylcellulose) (HPC)) 60 % of control; (endpoint: median tumor weight (est.), dose: 12.5 mg/kg/injection, schedule: Q07DX005 (ip), vehicle: other) 97 % of control; (endpoint: median tumor weight (est.), dose: 25.0 mg/kg/injection, schedule: Q07DX005 (ip), vehicle: Klucel (hydroxypropylcellulose) (HPC)) 120 % of control; (endpoint: median tumor weight (est.), dose: 25.0 mg/kg/injection, schedule: Q07DX005 (ip), vehicle: other) 70 % of control and 76 % of control; (endpoint: median tumor weight (est.), dose: 50.0 mg/kg/injection, schedule: Q07DX005 (ip), vehicle: Klucel (hydroxypropylcellulose) (HPC)) 62 % of control; (endpoint: median tumor weight (est.), dose: 100.0 mg/kg/injection, schedule: Q07DX005 (ip), vehicle: Klucel (hydroxypropylcellulose) (HPC)) 53 % of control.
With `CCCCCCCCC(C)C(=O)N1CCCC1C(=O)N1C(CC(=O)CC)CC(C)CC1C(=O)NC(C)C(=O)NC(C)(C)C(=O)NC(C)(C)C(=O)NC(C(=O)NC(C)C(=O)NC(C)(C)C(=O)NC(C)(C)C(=O)NC(C)CN(C)CCO)C(C)CC` (centres undefined) (X1-P[X2]A[Aib][Aib]IA[Aib][Aib]-X3; configuration not given here), the T/C by setting is: (endpoint: median tumor weight change, dose: 3.0 mg/kg/injection, schedule: Q01DX001 (ip), vehicle: saline with Tween-80) 100 % of control; (endpoint: median tumor weight change, dose: 3.12 mg/kg/injection, schedule: Q01DX001 (ip), vehicle: other) 123 % of control.
